Measurements: patent publication US9738634B2, “Heterocyclic amide compound and herbicide” (SYNGENTA PARTICIPATIONS AG, priority 2013, dated 2017)

Columns and labels:
Assay type in all cases: in vivo
Conditions in all cases: treatment dosage 320 g/ha
[1] = tested on: birds-eye speedwell; assay: Test Example 3: weedkilling efficacy through soil treatment; p: birds-eye speedwell
Summary of the method: (§1)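 Crop and weed responses were judged three weeks after a uniform surface spray of the water-diluted emulsion at the given g/ha rate. Seeds sat beneath about 1.5 cm of sterilized diluvial soil, and boxes stood in a greenhouse at 25 to 30° C.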

[2] = tested on: green foxtail; assay: Test Example 4: weedkilling efficacy by foliar treatment; E: green foxtail
Summary of the method: (§2)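 Seeds are spot-sown into sterilized diluvial soil and covered with about 1.5 cm of soil. After 14 days' greenhouse growth at 25 to 30° C, plants are sprayed on stems and leaves with diluted emulsion at the stated g/ha rate, then scored at 3 weeks.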

[3] = tested on: wild oat; assay: Test Example 4: weedkilling efficacy by foliar treatment; G: wild oat
Summary of the method: as §2

[4] = tested on: barnyard grass; assay: Test Example 2: weedkilling efficacy, growth period weed treatment in the submerged state; A: barnyard grass
Summary of the method: (§3)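 Weeds treated at the 1-2 leaf stage by application of diluted emulsion onto floodwater (4 cm depth, alluvial soil) at specified g/ha. Grown in greenhouse at 25 to 30° C; herbicidal effect rated three weeks after treatment.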

[5] = tested on: oval-leafed pondweed; assay: Test Example 1: weedkilling efficacy, preemergent weed treatment in the submerged state; C: oval-leafed pondweed
Summary of the method: (§4)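 Pots of alluvial soil were flooded to a 4 cm depth. Mixed weed seeds were sown and 2.5 leaf-stage rice seedlings transplanted. On sowing day, water-diluted emulsion was applied to the water surface (dose in g/ha). After 3 weeks at 25–30 °C, effects were rated.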

[6] = tested on: wild oat; assay: Test Example 3: weedkilling efficacy through soil treatment; G: wild oat
Summary of the method: as §1

[7] = tested on: barnyard grass; assay: Test Example 1: weedkilling efficacy, preemergent weed treatment in the submerged state; A: barnyard grass
Summary of the method: as §4

[8] = tested on: transplanted rice; assay: Test Example 1: preemergent weed treatment in the submerged state, effect on crop; a: transplanted rice
Summary of the method: as §4

[9] = tested on: common wind-grass; assay: Test Example 4: weedkilling efficacy by foliar treatment; J: common wind-grass
Summary of the method: as §2

[10] = tested on: beet; assay: Test Example 3: soil treatment, effect on crop; f: beet
Summary of the method: as §1

[11] = tested on: directly sown rice; assay: Test Example 3: soil treatment, effect on crop; b: directly sown rice
Summary of the method: as §1

[12] = tested on: Indian mallow; assay: Test Example 3: weedkilling efficacy through soil treatment; K: Indian mallow
Summary of the method: as §1

[13] = tested on: Italian ryegrass; assay: Test Example 3: weedkilling efficacy through soil treatment; I: Italian ryegrass
Summary of the method: as §1

[14] = tested on: redroot pigweed; assay: Test Example 4: weedkilling efficacy by foliar treatment; L: redroot pigweed
Summary of the method: as §2

[15] = tested on: rapeseed; assay: Test Example 4: foliar treatment, effect on crop; g: rapeseed
Summary of the method: as §2

[16] = tested on: crabgrass; assay: Test Example 3: weedkilling efficacy through soil treatment; D: crabgrass
Summary of the method: as §1

[17] = tested on: Italian ryegrass; assay: Test Example 4: weedkilling efficacy by foliar treatment; I: Italian ryegrass
Summary of the method: as §2

[18] = tested on: bulrush; assay: Test Example 1: weedkilling efficacy, preemergent weed treatment in the submerged state; B: bulrush
Summary of the method: as §4

[19] = tested on: fig-leafed goosefoot; assay: Test Example 3: weedkilling efficacy through soil treatment; M: fig-leafed goosefoot
Summary of the method: as §1

[20] = tested on: wheat; assay: Test Example 4: foliar treatment, effect on crop; e: wheat
Summary of the method: as §2

[21] = tested on: soybean; assay: Test Example 4: foliar treatment, effect on crop; d: soybean
Summary of the method: as §2

[22] = tested on: barnyard grass; assay: Test Example 3: weedkilling efficacy through soil treatment; F: barnyard grass
Summary of the method: as §1

[23] = tested on: soybean; assay: Test Example 3: soil treatment, effect on crop; d: soybean
Summary of the method: as §1

[24] = tested on: catchweed; assay: Test Example 4: weedkilling efficacy by foliar treatment; O: catchweed
Summary of the method: as §2

[25] = tested on: barnyard grass; assay: Test Example 4: weedkilling efficacy by foliar treatment; F: barnyard grass
Summary of the method: as §2

[26] = tested on: birds-eye speedwell; assay: Test Example 4: weedkilling efficacy by foliar treatment; p: birds-eye speedwell
Summary of the method: as §2

[27] = tested on: fig-leafed goosefoot; assay: Test Example 4: weedkilling efficacy by foliar treatment; M: fig-leafed goosefoot
Summary of the method: as §2

[28] = tested on: green foxtail; assay: Test Example 3: weedkilling efficacy through soil treatment; E: green foxtail
Summary of the method: as §1

[29] = tested on: black-grass; assay: Test Example 3: weedkilling efficacy through soil treatment; H: black-grass
Summary of the method: as §1

[30] = tested on: black-grass; assay: Test Example 4: weedkilling efficacy by foliar treatment; H: black-grass
Summary of the method: as §2

[31] = tested on: redroot pigweed; assay: Test Example 3: weedkilling efficacy through soil treatment; L: redroot pigweed
Summary of the method: as §1

[32] = tested on: directly sown rice; assay: Test Example 4: foliar treatment, effect on crop; b: directly sown rice
Summary of the method: as §2

[33] = tested on: wheat; assay: Test Example 3: soil treatment, effect on crop; e: wheat
Summary of the method: as §1

[34] = tested on: bulrush; assay: Test Example 2: weedkilling efficacy, growth period weed treatment in the submerged state; B: bulrush
Summary of the method: as §3

[35] = tested on: crabgrass; assay: Test Example 4: weedkilling efficacy by foliar treatment; D: crabgrass
Summary of the method: as §2

[36] = tested on: oval-leafed pondweed; assay: Test Example 2: weedkilling efficacy, growth period weed treatment in the submerged state; C: oval-leafed pondweed
Summary of the method: as §3

[37] = tested on: corn; assay: Test Example 3: soil treatment, effect on crop; c: corn
Summary of the method: as §1

[38] = tested on: common wind-grass; assay: Test Example 3: weedkilling efficacy through soil treatment; J: common wind-grass
Summary of the method: as §1

[39] = tested on: corn; assay: Test Example 4: foliar treatment, effect on crop; c: corn
Summary of the method: as §2

[40] = tested on: chickweed; assay: Test Example 3: weedkilling efficacy through soil treatment; N: chickweed
Summary of the method: as §1

[41] = tested on: Indian mallow; assay: Test Example 4: weedkilling efficacy by foliar treatment; K: Indian mallow
Summary of the method: as §2

[42] = tested on: rapeseed; assay: Test Example 3: soil treatment, effect on crop; g: rapeseed
Summary of the method: as §1

[43] = tested on: chickweed; assay: Test Example 4: weedkilling efficacy by foliar treatment; N: chickweed
Summary of the method: as §2

[44] = tested on: beet; assay: Test Example 4: foliar treatment, effect on crop; f: beet
Summary of the method: as §2

With `COc1cc(C(F)(F)F)cc(NC(=O)C(C)(C)N2COC(C)=C(c3ccccc3)C2=O)n1` [B-2-49] the “P (birds-eye speedwell) weedkilling efficacy grade” value [1] was 5 (weed kill ratio 90% or more, (practically complete withering)), the “E (green foxtail) weedkilling efficacy grade” value [2] was 5 (weed kill ratio 90% or more, (practically complete withering)) and the “G (wild oat) weedkilling efficacy grade” value [3] was 3 (weed kill ratio 40% or more, less than 70%). For the same molecule, the “A (barnyard grass) weedkilling efficacy grade” value [4] was 5 (weed kill ratio 90% or more, (practically complete withering)), the “C (oval-leafed pondweed) weedkilling efficacy grade” value [5] was 5 (weed kill ratio 90% or more, (practically complete withering)) and the “G (wild oat) weedkilling efficacy grade” value [6] was 3 (weed kill ratio 40% or more, less than 70%). The “A (barnyard grass) weedkilling efficacy grade” value [7] was 5 (weed kill ratio 90% or more, (practically complete withering)), the “a (transplanted rice) effect on crop grade” value [8] was 3 (weed kill ratio 40% or more, less than 70%) and the “J (common wind-grass) weedkilling efficacy grade” value [9] was 4 (weed kill ratio 70% or more, less than 90%). For the same molecule, the “f (beet) effect on crop grade” value [10] was 3 (weed kill ratio 40% or more, less than 70%), the “b (directly sown rice) effect on crop grade” value [11] was 3 (weed kill ratio 40% or more, less than 70%) and the “K (Indian mallow) weedkilling efficacy grade” value [12] was 1 (weed kill ratio 5% or more, less than 20%). The “I (Italian ryegrass) weedkilling efficacy grade” value [13] was 5 (weed kill ratio 90% or more, (practically complete withering)), the “L (redroot pigweed) weedkilling efficacy grade” value [14] was 3 (weed kill ratio 40% or more, less than 70%) and the “g (rapeseed) effect on crop grade” value [15] was 3 (weed kill ratio 40% or more, less than 70%). The “D (crabgrass) weedkilling efficacy grade” value [16] was 5 (weed kill ratio 90% or more, (practically complete withering)), the “I (Italian ryegrass) weedkilling efficacy grade” value [17] was 1 (weed kill ratio 5% or more, less than 20%) and the “B (bulrush) weedkilling efficacy grade” value [18] was 5 (weed kill ratio 90% or more, (practically complete withering)). The “M (fig-leafed goosefoot) weedkilling efficacy grade” value [19] was 3 (weed kill ratio 40% or more, less than 70%), the “e (wheat) effect on crop grade” value [20] was 0 (weed kill ratio 5% or less (practically no effect)) and the “d (soybean) effect on crop grade” value [21] was 3 (weed kill ratio 40% or more, less than 70%). For the same molecule, the “F (barnyard grass) weedkilling efficacy grade” value [22] was 5 (weed kill ratio 90% or more, (practically complete withering)), the “d (soybean) effect on crop grade” value [23] was 0 (weed kill ratio 5% or less (practically no effect)) and the “O (catchweed) weedkilling efficacy grade” value [24] was 3 (weed kill ratio 40% or more, less than 70%). For the same molecule, the “F (barnyard grass) weedkilling efficacy grade” value [25] was 4 (weed kill ratio 70% or more, less than 90%), the “P (birds-eye speedwell) weedkilling efficacy grade” value [26] was 4 (weed kill ratio 70% or more, less than 90%) and the “M (fig-leafed goosefoot) weedkilling efficacy grade” value [27] was 3 (weed kill ratio 40% or more, less than 70%). For the same molecule, the “E (green foxtail) weedkilling efficacy grade” value [28] was 5 (weed kill ratio 90% or more, (practically complete withering)), the “H (black-grass) weedkilling efficacy grade” value [29] was 5 (weed kill ratio 90% or more, (practically complete withering)) and the “H (black-grass) weedkilling efficacy grade” value [30] was 3 (weed kill ratio 40% or more, less than 70%). For the same molecule, the “L (redroot pigweed) weedkilling efficacy grade” value [31] was 4 (weed kill ratio 70% or more, less than 90%), the “b (directly sown rice) effect on crop grade” value [32] was 0 (weed kill ratio 5% or less (practically no effect)) and the “e (wheat) effect on crop grade” value [33] was 0 (weed kill ratio 5% or less (practically no effect)). The “B (bulrush) weedkilling efficacy grade” value [34] was 5 (weed kill ratio 90% or more, (practically complete withering)), the “D (crabgrass) weedkilling efficacy grade” value [35] was 5 (weed kill ratio 90% or more, (practically complete withering)) and the “C (oval-leafed pondweed) weedkilling efficacy grade” value [36] was 5 (weed kill ratio 90% or more, (practically complete withering)). For the same molecule, the “c (corn) effect on crop grade” value [37] was 0 (weed kill ratio 5% or less (practically no effect)), the “J (common wind-grass) weedkilling efficacy grade” value [38] was 5 (weed kill ratio 90% or more, (practically complete withering)) and the “c (corn) effect on crop grade” value [39] was 3 (weed kill ratio 40% or more, less than 70%). The “N (chickweed) weedkilling efficacy grade” value [40] was 4 (weed kill ratio 70% or more, less than 90%), the “K (Indian mallow) weedkilling efficacy grade” value [41] was 4 (weed kill ratio 70% or more, less than 90%) and the “g (rapeseed) effect on crop grade” value [42] was 3 (weed kill ratio 40% or more, less than 70%). For the same molecule, the “N (chickweed) weedkilling efficacy grade” value [43] was 3 (weed kill ratio 40% or more, less than 70%) and the “f (beet) effect on crop grade” value [44] was 3 (weed kill ratio 40% or more, less than 70%).
